Data published in PubChem BioAssay (NCI).
“And” between values parts separate entries of the source, which are not always exact repeats. Equal entries are not always repeated.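 Compound exposure: 48 hours, 5 concentrations, 96-well plates. The concentration for 50% growth inhibition is given as GI50. TGI: total growth inhibition.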

Tested on: MDA-MB-468 breast
Experiment: growth of human tumour cells (NCI), 48 h

| Compound | GI50 | TGI |
| --- | --- | --- |
| O=P(O)(O)OCC1OC(n2cnc3c(NCc4ccccc4)ncnc32)C(O)C1O (configuration not stated) | 925 nM | 4120 nM |
| c1ccc2c(c1)cc1ccc3cccc4ccc2c1c34 | 157 nM | 312 nM |
| COC(=O)N[C@H]1CCc2c(Cl)c(OC)c(OC)c(OC)c2-c2ccc(SC)c(=O)cc21 | < 10 nM | 23100 nM |
| COc1ccc2nc3cc(Cl)ccc3c(Nc3cc(CN4CCCC4)c(O)c(CN4CCCC4)c3)c2n1 | 1330 nM | 2760 nM |
| C[N+](C)=c1ccc2nc3c(cc(NCCCNc4cc5oc6cc(=[N+](C)C)ccc-6nc5c5ccccc45)c4ccccc43)oc-2c1 | 193 nM | 1350 nM |
| O=c1[nH]c(=O)n(C2CC(O)C(CO)O2)cc1C(F)(F)F (configuration not stated) | > 85400 nM | > 100000 nM |
| COC[C@]12CCC(C)(C)C[C@H]1C1=CC[C@@H]3[C@@]4(C)CCCNC(C)(C)[C@@H]4CC[C@@]3(C)[C@]1(C)CC2 | 1530 nM | 3230 nM |
| Cc1cc(O)c(-c2ccc([C@@H](C)CN(C)C)cc2)c2c1[nH]c(=O)c1sccc12 | 514 nM | 3940 nM |
| CC/C(=C/c1ccc(OC)cc1OC)[N+](=O)[O-] | 2020 nM | 4300 nM |
| COc1cc(C(=O)c2cocc2C(=O)c2ccc3c(c2)OCO3)cc(OC)c1OC | 4050 nM | > 100000 nM |
| COC(=O)[C@H](Cc1cn(C)cn1)NC(=O)[C@H](Cc1ccccc1)NC(=O)Nc1cc(C(F)(F)F)cc(C(F)(F)F)c1 | 4400 nM and 4230 nM | 17700 nM |
| CS(=O)(=O)N(c1cc(-c2ccc3ncnc(Nc4ccc(F)c(Cl)c4)c3c2)cnc1Cl)S(C)(=O)=O | 467 nM | 2550 nM |
| CC[C@H](C)[C@H](NC(=O)c1cccn1C)C(=O)N(C)[C@H](C[C@@H](OC(C)=O)c1nc(C(=O)N[C@@H](Cc2ccccc2)C[C@H](C)C(=O)OC)cs1)C(C)C | 68.3 nM | 10800 nM |
| CNC(=O)c1cncc(/C=C/c2ccccc2Cl)c1 | 9170 nM | > 25000 nM |
| Cc1ccc(C(=O)NC2CC2)cc1-c1ccc2[nH]ncc2c1 | > 23000 nM | > 25000 nM |
| O=C(Nc1cccc(C(F)(F)F)c1)Oc1ccc(Cl)c2cccnc12 | 1790 nM | 4280 nM |
| COc1cc2nccc(Oc3ccc(NC(=O)c4cn(C(C)C)c(=O)n(-c5ccc(F)cc5)c4=O)cc3F)c2cc1OC | > 100000 nM | > 100000 nM |
| Nc1cccc2c1C(=O)c1cccc(NC(=O)c3ccccc3)c1C2=O | 577 nM | 7030 nM |
| CC(C)(C)OC(=O)N[C@@H](Cc1ccccc1)C(=O)N(Cc1ccccc1)C1(C(=O)NCc2ccccc2)CCN(Cc2ccccc2)CC1 | 1620 nM | 5910 nM |
| CCCCn1c(=O)c(/C=C/C(=O)/C=C/c2cc3ccccc3n(CCCC)c2=O)cc2ccccc21 | 1640 nM | 3760 nM |
| CNC(=O)c1ccccc1Nc1nc(Nc2ccc3c(c2OC)CCC[C@H](N2CCN(CCO)CC2)C3)ncc1Cl | 1210 nM and 696 nM | 3330 nM and 2500 nM |
| O=C(/C=C/C12c3ccccc3C(c3ccccc31)C1C(=O)NC(=O)C12)c1ccccc1 (configuration not stated) | 1720 nM | 3680 nM |
| ClC(Cl)c1nc(-c2cccs2)n2nc(-c3ccccc3)cc2n1 | 224 nM | 688 nM |
| CCN(CC)CCCCNc1c2ccc(Cl)cc2nc2ccc(OC)cc12 | 317 nM | 1830 nM |
| CCn1c2ccccc2c2cc(C(=O)c3ccc(C)c4ccccc34)ccc21 | 291 nM | 918 nM |
| CC(C)c1ccc(NC(=O)Cc2ccc(Nc3ncnc4cc(-c5cnn(CCN(C)C)c5)ccc34)cc2)cc1 | 1340 nM | 3720 nM |
